test: recombinant UMI read abundance after kanamycin selection (control-corrected) (log10(CPM+1)); higher = more efficient recombination; extreme values may be limits of the assay; sequences stand for … in AGTGCAGAGAAAATCGGCCAGTTTTCTCTGCCTGCAGTCCGCATGCCGTGGGACCCCTTGGGTTCTAACCTGTTGCCTAGATTTATGCAGCGGACTGCCTTTCTCCCAAAGTGATAAACCGG…AGGTTGGTTTCACT; site = the 11-nt donor
Method: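 Pooled E. coli donor-specificity screen for the IS621 bridge recombinase. Each library member carries a reprogrammed 11-nt donor and a full-length LE bridge RNA expressed in cis from the natural promoter, with a paired donor-binding loop (8-nt LDG + 4-nt RDG) and a target-binding loop fixed to T5. It is co-electroporated with a T5 target plasmid; recombinase is induced with 0.07 mM IPTG and recombinants are selected on kanamycin. UMIs are counted as CPM, averaged over two biological replicates and corrected by the unselected control. Molecule = full bridge RNA written as DNA, built from the T5 scaffold: LDG = donor specificity nt 1-8, RDG = reverse complement of nt 8-11.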
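Also: IS621 bridge recombinase in Escherichia coli cells against a fixed T5 target plasmid.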

| Sequence | recombinant UMI read abundance (log10) |
| --- | --- |
| AAGGATACATGGACCGGTTTTCCCGGTAATCCGTATTTGCC (site AAGGATACTGG) | 2.67 |
| GTATGCACATGGACCGGTTTTCCCGGTAATCCGTATTTGCA (site GTATGCACTTC) | 0.0124 |
| CGGGGACCATGGACCGGTTTTCCCGGTAATCCGTATTTGGG (site CGCGGACCTCC) | 0.0363 |
| CCCGGGCCATGGACCGGTTTTCCCGGTAATCCGTATTTGCA (site CCCGGCCCTTG) | 0 |
| GCCTCGCCATGGACCGGTTTTCCCGGTAATCCGTATTTGTA (site GCCACGCCTTA) | 0.00387 |
| CACTTGGCATGGACCGGTTTTCCCGGTAATCCGTATTTGCA (site CACTTGGCTTC) | 0.0203 |
| GAATGGACATGGACCGGTTTTCCCGGTAATCCGTATTTGCA (site GAATGGCCTTG) | 0.483 |
| TGCTAGGCATGGACCGGTTTTCCCGGTAATCCGTATTTGGT (site TGCTACGCTAC) | 0.0185 |
| CGTTAAACATGGACCGGTTTTCCCGGTAATCCGTATTTGAG (site CGTTAGACTCT) | 0.00692 |
| AATGCAGCATGGACCGGTTTTCCCGGTAATCCGTATTTGAA (site AATGCAGCTTT) | 0.709 |
| GAATAAGCATGGACCGGTTTTCCCGGTAATCCGTATTTGTG (site GAATAAGCTCA) | 1.99 |
| GGGACACCATGGACCGGTTTTCCCGGTAATCCGTATTTGCA (site GGGGCACCTTG) | 0 |
| AGGTACGCATGGACCGGTTTTCCCGGTAATCCGTATTTGAG (site AGGTACGCTCT) | 1.72 |
| CAATACTCATGGACCGGTTTTCCCGGTAATCCGTATTTGAA (site CAATCCTCTTT) | 0 |
| ATTCTCTCATGGACCGGTTTTCCCGGTAATCCGTATTTGTA (site GTTCTCTCTTA) | 1.52 |
| TATTCGGCATGGACCGGTTTTCCCGGTAATCCGTATTTGTG (site TATTGGGCTCA) | 0.00845 |
| TAAGCTGCATGGACCGGTTTTCCCGGTAATCCGTATTTGTG (site TGAGCTGCTCA) | 0.0127 |
| GAGCATGCATGGACCGGTTTTCCCGGTAATCCGTATTTGGT (site GCGCATGCTAC) | 0.474 |
| AGGAAGACATGGACCGGTTTTCCCGGTAATCCGTATTTGAC (site AGGAAGACTTG) | 0.571 |

| Sequence | recombinant UMI read abundance (log10) |
| --- | --- |
| GTGCATGCATGGACCGGTTTTCCCGGTAATCCGTATTTGGC (site GTGCATGCTCC) | 0 |
| CCTTAGCCATGGACCGGTTTTCCCGGTAATCCGTATTTGCC (site CCGTAGCCTGG) | 0 |
| ACTAGAACATGGACCGGTTTTCCCGGTAATCCGTATTTGAG (site ACTAGAACTCT) | 1.72 |
| TCATCTACATGGACCGGTTTTCCCGGTAATCCGTATTTGTG (site ACATCTACTCA) | 0.0432 |
| CACTCCTCATGGACCGGTTTTCCCGGTAATCCGTATTTGTC (site CACTCCTCTGG) | 2.55 |
| GGGGCACCATGGACCGGTTTTCCCGGTAATCCGTATTTGCA (site GGGTCACCTTG) | 0.0044 |
| AATTATACATGGACCGGTTTTCCCGGTAATCCGTATTTGGA (site AATTATACTTC) | 0.828 |
| CGAGGCCCATGGACCGGTTTTCCCGGTAATCCGTATTTGGG (site CGAGGACCTCC) | 0.0197 |
| CGCTTGGCATGGACCGGTTTTCCCGGTAATCCGTATTTGCT (site CGGTTGGCTAG) | 0 |
| CCGCTTACATGGACCGGTTTTCCCGGTAATCCGTATTTGCT (site CCGGTTACTAG) | 0 |
| CTCCTAACATGGACCGGTTTTCCCGGTAATCCGTATTTGGA (site CTGCTAACTTC) | 0.0178 |
| GAGCTGACATGGACCGGTTTTCCCGGTAATCCGTATTTGAT (site GAGCTGACTAT) | 2.09 |
| GTCACGCCATGGACCGGTTTTCCCGGTAATCCGTATTTGTA (site GCCACGCCTTA) | 0 |
| CGCTAGGCATGGACCGGTTTTCCCGGTAATCCGTATTTGGT (site CGCTAGGCTAC) | 0.0166 |
| CATTCAACATGGACCGGTTTTCCCGGTAATCCGTATTTGCC (site CATTCAACTGG) | 0.426 |
| AAAGATTCATGGACCGGTTTTCCCGGTAATCCGTATTTGTT (site AAAGATTCTAA) | 2.82 |
| CGGACTACATGGACCGGTTTTCCCGGTAATCCGTATTTGAC (site GGGACTACTGT) | 0 |
| AATATGGCATGGACCGGTTTTCCCGGTAATCCGTATTTGCG (site AATATGGCTCG) | 1.22 |
| TCGCCGGCATGGACCGGTTTTCCCGGTAATCCGTATTTGGC (site TTGCCGGCTGC) | 0 |

| Sequence | recombinant UMI read abundance (log10) |
| --- | --- |
| AACTGCGCATGGACCGGTTTTCCCGGTAATCCGTATTTGAT (site AACTGCGCTAT) | 1.34 |
| TAGCCTGCATGGACCGGTTTTCCCGGTAATCCGTATTTGGT (site TAGCCTTCTAC) | 0.00419 |
| TAGGAATCATGGACCGGTTTTCCCGGTAATCCGTATTTGCG (site TAGCAATCTCG) | 1.05 |
| CTGGCACCATGGACCGGTTTTCCCGGTAATCCGTATTTGGC (site CTGGCACCTGC) | 0.523 |
| CTCTACGCATGGACCGGTTTTCCCGGTAATCCGTATTTGCT (site CTCTACACTAG) | 0.475 |
| ACACGAACATGGACCGGTTTTCCCGGTAATCCGTATTTGTA (site ACACGAACTAA) | 0.0114 |
| TTGCTACCATGGACCGGTTTTCCCGGTAATCCGTATTTGCT (site CTGCTACCTAG) | 0.00337 |
| TGTATCACATGGACCGGTTTTCCCGGTAATCCGTATTTGAA (site TGTATCACTTT) | 0.00408 |
| CTTCTCCCATGGACCGGTTTTCCCGGTAATCCGTATTTGTA (site CTTCTCGCTTA) | 0.0148 |
| TGCTAGTCATGGACCGGTTTTCCCGGTAATCCGTATTTGGT (site TGCTAGCCTAC) | 0.0102 |
| CCCTGATCATGGACCGGTTTTCCCGGTAATCCGTATTTGAG (site CCCTGATCTCT) | 0.248 |
| CGTTAAACATGGACCGGTTTTCCCGGTAATCCGTATTTGAG (site CGTTACACTCT) | 0 |
| GCTAATGCATGGACCGGTTTTCCCGGTAATCCGTATTTGCC (site GCTACTGCTGG) | 0 |
| TCAGACACATGGACCGGTTTTCCCGGTAATCCGTATTTGCG (site TCAGACACTCG) | 1.77 |
| TCATACTCATGGACCGGTTTTCCCGGTAATCCGTATTTGCT (site TCATACTCTAG) | 2.47 |
| TGGTTTCCATGGACCGGTTTTCCCGGTAATCCGTATTTGGG (site TGGTTTCCTCC) | 0.327 |
| CTGTCTCCATGGACCGGTTTTCCCGGTAATCCGTATTTGTC (site CTGTCTCCTGA) | 0.331 |
| TTAACTGCATGGACCGGTTTTCCCGGTAATCCGTATTTGTG (site TTATCTGCTCA) | 0.0133 |
| TGCGGTACATGGACCGGTTTTCCCGGTAATCCGTATTTGAG (site TGCGGTACTCT) | 0.757 |
